{
  "source": "patent US20140094521A1",
  "about": "“BENZYLAMINE DERIVATIVE” (priority 2011, published 2014)",
  "format_in_all_cases": "cell-based",
  "key": {"[1]": {"system": "Human multiple myeloma cell line RPMI8226", "assay": "Anticancer activity against multiple myeloma cell (Cell Counting Kit-8, 3 days)", "settings": "RPMI-8226, 72 h, read-out: IC50 value against a multiple myeloma cell", "protocol": "Human multiple myeloma cell line RPMI8226 was seeded on a 96 well plate in a density of 1×10^4 cells/well, and incubated under 5% carbon dioxide atmosphere at 37° C. overnight. Separately, the compound obtained in Example 2 was dissolved in dimethylsulfoxide, and added to each well so that the final concentration of the compound became 0.5 μM, 1 μM, 2 μM, 3 μM, 12.5 μM, 25 μM or 50 μM.\nIn addition, melphalan, which is a multiple myeloma therapeutic agent, was added to each well so that the final concentration of the compound became 10 μM, 20 μM, 30 μM, 40 μM or 50 μM as positive controls for comparison. Further, an experimental case in which only dimethylsulfoxide was added in the final concentration of 0.5 v/v % without adding the compound was provided.\nThen, after the cell was cultured under 5% carbon dioxide atmosphere at 37° C. for 3 days, an absorbance of formazan, which is an orange pigment produced by a living cell, at the wavelength of 420 nm was measured using a reagent for measuring cell proliferation/cytotoxicity (manufactured by Dojin Chemical Co., Cell Counting Kit-8). […] In addition, IC50 values were calculated from the obtained results."}, "[2]": {"system": "SP cell of human multiple myeloma cell line RPMI8226", "assay": "Anticancer activity against SP cell (Hoechst33342 flow cytometry)", "settings": "5 μM", "protocol": "A stem cell can undergo differentiation into various tissues and cells such as a hematopoietic stem cell, and has the quality to exclude fluorescent chemical substance such as Hoechst33258 extracellularly. […] A cell having such properties is called as an SP cell, i.e. Side Population Cell. […] Therefore, an effect of the present invention compound against a cancerous SP cell was examined.\nSpecifically, human multiple myeloma cell line RPMI8226 was incubated in the presence of the present invention compound similarly to Example 4. The cell was dispersed in 3% FBS DMEH so that the concentration became 1×10^6 cells/mL. A temperature of the dispersion was increased to 37° C., and then Hoechst33342 was added thereto so that the concentration thereof became 5 μg/ml. The mixture was incubated at 37° C. for 60 minutes under a shaded state with stirring every 20 minutes. Then, the mixture was centrifuged at 800×g for 3 minutes, and the supernatant was removed. Further, a washing procedure in which cooled 2% FES PBS was added, the mixture was centrifuged and the supernatant was removed was repeated two times. Separately, propidium iodide was dissolved in PBS to obtain a 200 μg/mL solution. […] The emitted fluorescence was passed through a bandpass filters of 450 nm and 675 nm, and deployed to obtain a two-dimensional dot plot. […]"}, "[3]": {"system": "human promyelocytic leukemia cell line HL60", "assay": "Survival rate of blood cancer cells (WST-8, 72 hours)", "settings": "HL-60, 72 h, read-out: EC50, Promyelocytic leukemia cell", "protocol": "(§1) Human acute myelogenous leukemia cell line KG1 and human promyelocytic leukemia cell line HL60 in addition to human multiple myeloma cell line RPMI8226 were seeded in a highly nutrient medium containing 10% FES (RPMI1640, 100 μL) in a density of 1×10^3 cells/well. The cells were incubated under 5% carbon dioxide atmosphere at 37° C. overnight. Separately, the compound of Example 2 was dissolved in DMSO and the obtained solution was diluted with the same culture medium. The mixture was added to each well so that the final concentrations of the compound became 0.39 μM, 0.78 μM, 1.56 μM, 3.13 μM, 6.25 μM, 12.5 μM or 50 μM.\n(§2) In addition, melphalan, which is a multiple myeloma therapeutic agent, was added to each well at the same final concentrations as positive controls for comparison. Further, an experimental case in which only dimethylsulfoxide was added in the final concentration of 0.2 to 0.8 v/v % without adding the compound was provided.\n(§3) Then, after the cells were cultured under 5% carbon dioxide atmosphere at 37° C. for 72 hours, the culture medium was removed and a culture medium obtained by mixing 100 μL of the above culture medium and 10 μL of WST-8, which is a reagent for measuring a cell number, was added to each well. After the cells were cultured under 5% carbon dioxide atmosphere at 37° C. for 2 hours, an absorbance at 450 nm was measured. The absorbance value when the cells were treated with DMSO only was set to be 100%, and a ratio of absorbance values at each concentration of the present invention compound or melphalan relative to the value were calculated as survival rate of each blood cancer cell. In addition, EC50, i.e. 50% effective concentration value, of each compound against each blood cancer cell was calculated from the obtained results."}, "[4]": {"system": "Human acute myelogenous leukemia cell line KG1", "assay": "Survival rate of blood cancer cells (WST-8, 72 hours)", "settings": "read-out: EC50, Acute myelogenous leukemia cell", "protocol": "as §1, §2, §3"}, "[5]": {"system": "Human multiple myeloma cell line RPMI8226", "assay": "Survival rate of blood cancer cells (WST-8, 72 hours)", "settings": "RPMI-8226, 72 h, read-out: EC50, Multiple myeloma cell", "protocol": "as §1, §2, §3"}},
  "data": [
    {"smiles": "N[C@@H](Cc1ccc(N(CCCl)CCCl)cc1)C(=O)O", "note": "[Melphalan, melphalan]", "values": [
      {"measurement": "IC50", "setting": "[1]", "value": 21, "unit": "µM"},
      {"measurement": "ratio of stained cells in SP region relative to the total cells", "setting": "[2]; control (0.5% DMSO only) 0.680 ± 0.0173%", "value": "0.563 ± 0.0777", "unit": "%"},
      {"measurement": "ratio of stained cells in Non-SP region relative to the total cells", "setting": "[2]; control (0.5% DMSO only) 19.2 ± 0.295%", "value": "5.05 ± 0.414", "unit": "%"},
      {"measurement": "EC50", "setting": "[3]", "value": 0.734, "unit": "µM"},
      {"measurement": "EC50", "setting": "[4]", "value": 3.69, "unit": "µM"},
      {"measurement": "EC50", "setting": "[5]", "value": 9.82, "unit": "µM"}
    ]}
  ]
}
